Laboratory results published in the CheMixHub viscosity set.
± gives the uncertainty stated by the source.

Test: xn = mol fraction of the nth substance listed

N#Cc1ccccc1 + CCCCO
viscosity [mPa·s], 101.33 kPa
Settings	x1 = 0.033	x1 = 0.1519	x1 = 0.2155	x1 = 0.3392	x1 = 0.4092	x1 = 0.504	x1 = 0.6218	x1 = 0.7894	x1 = 0.9629
303.15 K	2.094 ± 0.058	1.716 ± 0.045	1.583 ± 0.039	1.382 ± 0.033	1.3 ± 0.027	1.213 ± 0.026	1.149 ± 0.024	1.108 ± 0.023	1.119 ± 0.021
308.15 K	1.844 ± 0.047	1.534 ± 0.037	1.414 ± 0.033	1.245 ± 0.027	1.186 ± 0.025	1.108 ± 0.022	1.053 ± 0.02	1.021 ± 0.019	1.04 ± 0.017
313.15 K	1.66 ± 0.038	1.378 ± 0.03	1.281 ± 0.027	1.14 ± 0.022	1.08 ± 0.022	1.02 ± 0.018	0.976 ± 0.017	0.945 ± 0.014	0.978 ± 0.015

Nc1cccc2ccccc12 + CCCCO
viscosity [mPa·s], 101 kPa
Settings	x1 = 0.03572	x1 = 0.06889	x1 = 0.1289	x1 = 0.1817	x1 = 0.2285	x1 = 0.2702	x1 = 0.3076
293.15 K	3.082 ± 0.069	3.202 ± 0.072	3.539 ± 0.079	3.906 ± 0.086	4.311 ± 0.095	4.724 ± 0.1	5.193 ± 0.11
303.15 K	2.355 ± 0.054	2.427 ± 0.055	2.641 ± 0.06	2.879 ± 0.065	3.134 ± 0.07	3.39 ± 0.076	3.681 ± 0.082
313.15 K	1.828 ± 0.043	1.878 ± 0.044	2.019 ± 0.047	2.186 ± 0.05	2.355 ± 0.054	2.532 ± 0.058	2.719 ± 0.062
323.15 K	1.456 ± 0.036	1.494 ± 0.037	1.596 ± 0.039	1.718 ± 0.041	1.839 ± 0.043	1.965 ± 0.045	2.097 ± 0.048

C[n+]1ccn(CCc2ccccc2)c1.[Cl][Al-]([Cl])([Cl])[Cl] + CCCC[n+]1ccn(C)c1.[Cl][Al-]([Cl])([Cl])[Cl]
viscosity [mPa·s], 101 kPa
Settings	293.15 K	298.15 K	303.15 K	308.15 K	313.15 K	318.15 K	323.15 K
x2 = 0.5	92.4 ± 4.3	74.8 ± 3.5	60.6 ± 2.8	50.1 ± 2.3	41.7 ± 1.9	36.4 ± 1.6	32.1 ± 1.4
x2 = 0.6	75.1 ± 3.5	60 ± 2.8	50.6 ± 2.3	41.6 ± 1.9	35.6 ± 1.6	30.4 ± 1.4	27 ± 1.2

CCCOCCO + CCCN
viscosity [mPa·s], 101.33 kPa
Settings	298.15 K	308.15 K	318.15 K
x1 = 0.0069	0.365 ± 0.004	0.336 ± 0.004	0.296 ± 0.003
x1 = 0.0201	0.383 ± 0.004	0.346 ± 0.004	0.307 ± 0.004
x1 = 0.054	0.429 ± 0.005	0.385 ± 0.004	0.335 ± 0.004
x1 = 0.1049	0.509 ± 0.005	0.446 ± 0.005	0.382 ± 0.004
x1 = 0.1955	0.678 ± 0.007	0.574 ± 0.006	0.481 ± 0.005
x1 = 0.2496	0.797 ± 0.008	0.668 ± 0.007	0.55 ± 0.006
x1 = 0.3215	0.969 ± 0.01	0.8 ± 0.008	0.655 ± 0.007
x1 = 0.3686	1.103 ± 0.012	0.895 ± 0.01	0.722 ± 0.008
x1 = 0.4528	1.338 ± 0.014	1.075 ± 0.012	0.853 ± 0.009
x1 = 0.4581	1.355 ± 0.014	1.088 ± 0.012	0.862 ± 0.009
x1 = 0.5595	1.629 ± 0.018	1.289 ± 0.014	1.015 ± 0.011
x1 = 0.6789	1.925 ± 0.022	1.51 ± 0.017	1.175 ± 0.014
x1 = 0.752	2.082 ± 0.024	1.628 ± 0.019	1.265 ± 0.015
x1 = 0.8162	2.191 ± 0.026	1.715 ± 0.02	1.32 ± 0.016
x1 = 0.8943	2.282 ± 0.027	1.803 ± 0.022	1.385 ± 0.017
x1 = 0.9697	2.333 ± 0.029	1.867 ± 0.023	1.435 ± 0.018

CCCOCCO + CCCO
298.15 K, 101.33 kPa
Settings	viscosity [mPa·s]
x1 = 0.0085	1.95 ± 0.015
x1 = 0.0212	1.945 ± 0.016
x1 = 0.0386	1.944 ± 0.016
x1 = 0.0573	1.944 ± 0.016
x1 = 0.0817	1.943 ± 0.016
x1 = 0.0917	1.942 ± 0.016
x1 = 0.1295	1.944 ± 0.016
x1 = 0.157	1.948 ± 0.016
x1 = 0.2095	1.961 ± 0.017
x1 = 0.2715	1.976 ± 0.017
x1 = 0.323	1.994 ± 0.018
x1 = 0.3675	2.01 ± 0.018
x1 = 0.4185	2.031 ± 0.019
x1 = 0.4527	2.046 ± 0.02
x1 = 0.5174	2.072 ± 0.02
x1 = 0.5743	2.103 ± 0.021
x1 = 0.6243	2.125 ± 0.022
x1 = 0.6804	2.151 ± 0.023
x1 = 0.7324	2.186 ± 0.024
x1 = 0.7821	2.219 ± 0.025
x1 = 0.853	2.257 ± 0.026
x1 = 0.9063	2.294 ± 0.027
x1 = 0.9599	2.326 ± 0.028

N#Cc1ccccc1 + CCCO
viscosity [mPa·s], 101.33 kPa
Settings	x1 = 0.1072	x1 = 0.2174	x1 = 0.2995	x1 = 0.4082	x1 = 0.5248	x1 = 0.5951	x1 = 0.6992	x1 = 0.7547	x1 = 0.9108
303.15 K	1.447 ± 0.038	1.31 ± 0.027	1.222 ± 0.026	1.138 ± 0.025	1.096 ± 0.021	1.079 ± 0.02	1.066 ± 0.02	1.071 ± 0.019	1.094 ± 0.021
308.15 K	1.308 ± 0.028	1.19 ± 0.025	1.113 ± 0.023	1.037 ± 0.02	1.006 ± 0.019	0.994 ± 0.018	0.986 ± 0.018	0.991 ± 0.018	1.018 ± 0.017
313.15 K	1.187 ± 0.021	1.082 ± 0.023	1.017 ± 0.02	0.955 ± 0.016	0.93 ± 0.017	0.918 ± 0.017	0.913 ± 0.016	0.919 ± 0.016	0.951 ± 0.015

Nc1cccc2ccccc12 + CCCO
viscosity [mPa·s], 101 kPa
Settings	x1 = 0.02914	x1 = 0.0566	x1 = 0.1072	x1 = 0.1525	x1 = 0.1936	x1 = 0.2308	x1 = 0.2648
293.15 K	2.371 ± 0.054	2.516 ± 0.057	2.846 ± 0.064	3.22 ± 0.072	3.628 ± 0.081	4.054 ± 0.09	4.498 ± 0.099
303.15 K	1.836 ± 0.043	1.937 ± 0.045	2.154 ± 0.05	2.392 ± 0.055	2.662 ± 0.06	2.931 ± 0.066	3.222 ± 0.072
313.15 K	1.445 ± 0.036	1.518 ± 0.037	1.674 ± 0.04	1.839 ± 0.043	2.02 ± 0.047	2.211 ± 0.051	2.403 ± 0.055
323.15 K	1.153 ± 0.031	1.21 ± 0.032	1.324 ± 0.034	1.443 ± 0.036	1.57 ± 0.038	1.7 ± 0.041	1.838 ± 0.043

CCCCn1cc[n+](C)c1.[Cl-] + CCO
viscosity [mPa·s], 101 kPa
Settings	293.15 K	303.15 K	308.15 K
x2 = 0.4991	75.1 ± 20	–	–
x2 = 0.7003	–	9.24 ± 1.5	8.17 ± 1.3

Nc1cccc2ccccc12 + CCO
viscosity [mPa·s], 101 kPa
Settings	x1 = 0.0225	x1 = 0.04399	x1 = 0.08427	x1 = 0.1213	x1 = 0.1554	x1 = 0.187	x1 = 0.2163
293.15 K	1.348 ± 0.034	1.454 ± 0.036	1.7 ± 0.04	1.987 ± 0.046	2.308 ± 0.053	2.667 ± 0.06	3.025 ± 0.068
303.15 K	1.094 ± 0.03	1.176 ± 0.032	1.362 ± 0.035	1.56 ± 0.038	1.786 ± 0.042	2.029 ± 0.047	2.27 ± 0.052
313.15 K	0.903 ± 0.027	0.966 ± 0.028	1.104 ± 0.031	1.251 ± 0.033	1.41 ± 0.036	1.587 ± 0.039	1.759 ± 0.042
323.15 K	0.745 ± 0.025	0.791 ± 0.026	0.899 ± 0.027	1.006 ± 0.029	1.121 ± 0.031	1.254 ± 0.033	1.377 ± 0.035
